Earlier results in US20180055935A1, “METHOD FOR THE PRODUCTION OF A FORMULATION OF A HYPERICIN SALT” (Sanochemia Pharmazeutika AG, priority 2015, published 2018).

Test system: bladder carcinoma
Settings: hypericin 30 μM using polyethylene glycol, 595 nm, 25 up to 50 mW/cm^2

## Cc1cc(O)c2c(=O)c3c(O)cc(O)c4c5c(O)cc(O)c6c(=O)c7c(O)cc(C)c8c1c2c(c34)c(c78)c65 [hypericin, 1,3,4,6,8,13-hexahydroxy-10, 11-dimethylphenanthro (1,10,9,8-opqra)perylene-7, 14-dione]
  tumor cells killed: up to 98%
